# From patent US4049809A, “Solution of a oxazepine for oral or parenteral administration” (priority 1976, dated 1977)
# Read-outs that look alike come from different tables or passages of the source.
# What was measured:
# [1] = type: physicochemical; details: 10 mg/ml, pH 6.0, 15 months
# From the text: (§1) The favorable stability of the oral and parenteral solutions of this invention have been established in numerous tests. The criterion of stability being the lack of precipitation of the hydroylsis product 2-chloro-dibenz[b,f][1,4]oxazepin-11(1OH)-one. […]
# [2] = Second stability study, parenteral solution 15 mg/ml; type: physicochemical; details: 70% propylene glycol, pH 6.0
# From the text: as §1
# [3] = Third stability study, parenteral solution 20 mg/ml; type: physicochemical; details: 20 mg/ml parenteral solution
# Procedure: The favorable stability of the oral and parenteral solutions of this invention have been established in numerous tests. The criterion of stability being the lack of precipitation of the hydroylsis product 2-chloro-dibenz[b,f][1,4]oxazepin-11(1OH)-one. […] Three such studies follow:
# In the third test a parenteral solution of the active ingredient at a concentration of 20 mg/ml was prepared as described in the second stability study.
# [4] = Solubility and stability in water and near neutral/basic liquids; type: physicochemical
# [5] = Crystallization/solubility behaviour with and without Polysorbate 80; type: physicochemical
# [6] = Toxicity of hydrolysis product (statement)
# [7] = Stability of solutions: lack of precipitation of the hydrolysis product; type: physicochemical; details: in the new solutions; below this concentration
# From the text: as §1
smiles,measurement,setting,value
"CN1CCN(C2=Nc3ccccc3Oc3ccc(Cl)cc32)CC1 [2-chloro-11-(4-methyl-1-piperazinyl)-dibenz[b,f][1,4]oxazepine]",Hydrolysis Product,[1]; 50% propylene glycol,120 µg/mL
same,Hydrolysis Product,[1]; 60% propylene glycol,110 µg/mL
same,Hydrolysis Product,[1]; 70% propylene glycol,100 µg/mL
same,Hydrolysis Product,"[2]; 42° C, 1 Month",124 µg/mL
same,Potency,"[2]; 42° C, 1 Month",16.0 mg/mL
same,Hydrolysis Product,"[2]; 42° C, 2 Months",192 µg/mL
same,Potency,"[2]; 42° C, 2 Months",14.5 mg/mL
same,Hydrolysis Product,"[2]; 42° C, 4 Months",340 µg/mL
same,Potency,"[2]; 42° C, 4 Months",15.5 mg/mL
same,Hydrolysis Product,"[2]; 56° C, 1 Month",320 µg/mL
same,Potency,"[2]; 56° C, 1 Month",16.0 mg/mL
same,Hydrolysis Product,"[2]; 56° C, 2 Months",580 µg/mL
same,Potency,"[2]; 56° C, 2 Months",14.5 mg/mL
same,Hydrolysis Product,"[2]; 56° C, 2 Weeks",163 µg/mL
same,Potency,"[2]; 56° C, 2 Weeks",15.3 mg/mL
same,Hydrolysis Product,"[2]; 70° C, 1 Week",370 µg/mL
same,Physical Appearance,"[2]; 70° C, 1 Week",Precipitate
same,Potency,"[2]; 70° C, 1 Week",15.0 mg/mL
same,Hydrolysis Product,"[2]; 70° C, 2 Weeks",467 µg/mL
same,Potency,"[2]; 70° C, 2 Weeks",14.8 mg/mL
same,Hydrolysis Product,[2]; Fresh,26 µg/mL
same,Physical Appearance,[2]; Fresh,Clear
same,Potency,[2]; Fresh,16.0 mg/mL
same,Hydrolysis Product,"[2]; Room Temp., 2 Months",55 µg/mL
same,Potency,"[2]; Room Temp., 2 Months",15.4 mg/mL
same,Hydrolysis Product,"[2]; Room Temp., 4 Months",67 µg/mL
same,Potency,"[2]; Room Temp., 4 Months",15.6 mg/mL
same,Hydrolysis Product,"[2]; Room Temp., 6 Months",94 µg/mL
same,Potency,"[2]; Room Temp., 6 Months",15.6 mg/mL
same,Hydrolysis Product,"[2]; Room Temp., 11 Months",142 µg/mL
same,Potency,"[2]; Room Temp., 11 Months",15.4 mg/mL
same,Hydrolysis Product,"[2]; Room Temp., 13 Months",144 µg/mL
same,Potency,"[2]; Room Temp., 13 Months",15.1 mg/mL
same,Hydrolysis Product,"[2]; Room Temp., 18 Months",260 µg/mL
same,Potency,"[2]; Room Temp., 18 Months",14.3 mg/mL
same,Hydrolysis Product,"[3]; 42° C, 1 Month",146 µg/mL
same,Potency,"[3]; 42° C, 1 Month",21.8 mg/mL
same,Hydrolysis Product,"[3]; 42° C, 2 Months",232 µg/mL
same,Potency,"[3]; 42° C, 2 Months",20.5 mg/mL
same,Hydrolysis Product,"[3]; 42° C, 4 Months",436 µg/mL
same,Potency,"[3]; 42° C, 4 Months",20.2 mg/mL
same,Hydrolysis Product,"[3]; 56° C, 1 Month",374 µg/mL
same,Potency,"[3]; 56° C, 1 Month",20.6 mg/mL
same,Hydrolysis Product,"[3]; 56° C, 2 Months",732 µg/mL
same,Potency,"[3]; 56° C, 2 Months",19.4 mg/mL
same,Hydrolysis Product,"[3]; 56° C, 2 Weeks",185 µg/mL
same,Potency,"[3]; 56° C, 2 Weeks",21.0 mg/mL
same,Hydrolysis Product,"[3]; 70° C, 1 Week",480 µg/mL
same,Physical Appearance,"[3]; 70° C, 1 Week",Precipitate
same,Potency,"[3]; 70° C, 1 Week",20.7 mg/mL
same,Hydrolysis Product,"[3]; 70° C, 2 Weeks",623 µg/mL
same,Potency,"[3]; 70° C, 2 Weeks",20.6 mg/mL
same,Hydrolysis Product,[3]; Fresh,33.0 µg/mL
same,Physical Appearance,[3]; Fresh,Clear
same,Potency,[3]; Fresh,21.6 mg/mL
same,Hydrolysis Product,"[3]; Room Temp., 2 Months",62.7 µg/mL
same,Potency,"[3]; Room Temp., 2 Months",21.1 mg/mL
same,Hydrolysis Product,"[3]; Room Temp., 4 Months",78 µg/mL
same,Potency,"[3]; Room Temp., 4 Months",22.3 mg/mL
same,Hydrolysis Product,"[3]; Room Temp., 6 Months",116 µg/mL
same,Potency,"[3]; Room Temp., 6 Months",20.8 mg/mL
same,Hydrolysis Product,"[3]; Room Temp., 11 Months",160 µg/mL
same,Potency,"[3]; Room Temp., 11 Months",20.7 mg/mL
same,Hydrolysis Product,"[3]; Room Temp., 13 Months",184 µg/mL
same,Potency,"[3]; Room Temp., 13 Months",20.6 mg/mL
same,Hydrolysis Product,"[3]; Room Temp., 18 Months",340 µg/mL
same,Potency,"[3]; Room Temp., 18 Months",20.5 mg/mL
same,Solubility in liquids having a basic or near neutral pH,[4]; basic or near neutral pH,low solubility
same,Solubility in water,[4],low solubility
same,Effect of Polysorbate 80 on solubility level in 70% aqueous propylene glycol,[5]; 70% aqueous propylene glycol with Polysorbate 80,raises the solubility level
same,Effect of Polysorbate 80 on crystallization during intramuscular administration,[5]; 70% aqueous propylene glycol with Polysorbate 80 (about 2% to about 10%),eliminates the crystallization
same,Crystallization when parenterally administered to body fluids,"[5]; body fluids, pH about 7.0",exhibits a tendency to crystallize
same,Crystallization from neutral or basic media,[5]; neutral or basic media,crystallizes from neutral or basic media
same,Precipitation on dilution with non-acidic foods or beverages,[5]; oral concentrate without polysorbate 80,precipitates on dilution
"O=C1Nc2ccccc2Oc2ccc(Cl)cc21 [2-chloro-dibenz[b,f][1,4]oxazepin-11(10H)-one]",Solubility in water,[4],extremely insoluable
same,Toxicity,[6],nontoxic
same,Concentration at which crystallization of hydrolysis product does not occur,[7],below 500 mcg/ml
